Assay results as given in publication PMC7883873, “Discovery of New Catalytic Topoisomerase II Inhibitors for Anticancer Therapeutics” (Frontiers in Oncology, 2021).
One block for each molecule: values may come before it.

Columns and labels:
[1] = biological target: T1, TOP2A (Homo sapiens, UniProt P11388); assay: Relaxation and K-DNA decatenation assays of candidates and T60 derivatives (SAR); assay type: biochemical; set-up: full-length human TOP2A and TOP2B protein (TopoGEN and Inspiralis respectively); purchased TopoGEN TG1001 (human TOP2 assay kit); details: compared with T60
Protocol: (§1) The human TOP2 assay kit (#TG1001, TopoGEN, Buena Vista, CO) and TOP2B (HTB205, Inspiralis, UK) were used for K-DNA decatenation assays. […] The reaction was incubated at 37C for 2 h after which 4 µl stop solution (5× buffer is 5% Sarkosyl, 0.125% bromophenol blue, 25% glycerol) was added. The reaction was resolved by electrophoresis on a 0.8% agarose gel at 60 V and stained with 0.5 µg/ml ethidium bromide for 15 min. DNA bands were visualized using a gel imager (Gel Doc™ EZ System) and quantified using the Image Studio™ Lite Quantification Software.
(§2) The human TOP2A and TOP2B were used to perform DNA relaxation assays. […] The reaction was incubated at 37C for 2 h and stopped by adding 2 µl of 10% SDS and 1 µl of 250 mM of EDTA, followed by the addition of 50 µg/ml of proteinase K at 45 C for 1 h. The reaction was then resolved by electrophoresis on a 1% agarose gel at 80 V and stained with 0.5 µg/ml ethidium bromide for 15 min. DNA bands were visualized using a gel imager (Gel Doc™ EZ System) and quantified using the Image Studio™ Lite Quantification Software.

[2] = biological target: T2, TOP2A (431–1193) (Homo sapiens, UniProt P11388); assay: Bio-Layer Interferometry (BLI) assay; assay type: binding
T2 construct: was incorporated with TOP2A (431–1193); made in house; host or cells: Escherichia coli BL21 co-expressing biotin ligase
Protocol: BLI assays were performed as we previously reported ([33]). The direct and reversible interactions between small molecules and TOP2 protein were quantified by BLI using OctetRED (ForteBio, Bohemia, NY). Human TOP2A (431–1,193) was produced in situ with AviTag technology. The AviTag sequence ([…]) followed by a six-residue glycine serine linker (GSGSGS) was incorporated with TOP2A (431–1193). Escherichia coli BL21 containing both biotin ligase and TOP2A (431–1193) vectors were induced with 0.5 mM isopropyl-β-D-thiogalactopyranoside (IPTG) and biotin at 16C overnight. The bacteria were then lysed by sonication, and the resulting lysate was purified by immobilized metal ion affinity chromatography (IMAC) with nickel nitrilotriacetic acid (NiNTA) resin and cation-exchange chromatography (HiTrap SP). Purified TOP2A (431–1193) (50 μg/ml) was bound to the super-streptavidin sensors over 50 min at room temperature. The sensor was kept in an assay buffer [20 mM N-2-hydroxyethylpiperazine-N0 -2-ethanesulfonic acid (HEPES), 150 mM NaCl, 500 μM tris(2-carboxyethyl) phosphine (TCEP), and 1% dimethylsulfoxide (DMSO)], when small molecules were added. After 200 s, a wash buffer was used to flush the sensor plate for 100 s. BLI signal was recorded throughout the 300 s following the manufacture’s instruction from OctetRED (ForteBio, Bohemia, NY).

[3] = test system: K562 xenografts; assay: K562 xenografts, intra-tumor polymeric paste; assay type: in vivo, nude mice (Nu/Nu); details: single 30 µl paste, 1% T60 or T633, 0.3% etoposide
Protocol: The polymeric paste was prepared with 50% poly-DL-lactide-coglycolide (PLGA) and 50% PEG 300 (w/w) as we have reported ([57]). […] The density of the paste was determined to be 1.2 g/ml ( ± 3%). One million K562 cells were inoculated subcutaneously in bilateral flanks of nude mice (Nu/Nu). […] Tumor volumes were measured every three days and were calculated by length × width × depth × 0.5236. Mice were euthanized when tumor volumes reached 15% of body weight or weight loss >20% occurred. The remaining mice were euthanized after the control group was euthanized. All animal procedures were under the guidelines of the Canadian Council on Animal Care and were approved by the UBC Animal Care Committee (# A19-0256).

[4] = biological target: TOP2B (Homo sapiens, UniProt Q02880); assay: DNA cleavage assay; assay type: biochemical; set-up: full-length human TOP2A and TOP2B protein (TopoGEN and Inspiralis respectively); purchased Inspiralis HTB205; details: 200 µM, buffer without ATP
Protocol: (§3) The reactions were incubated in 37C for 30 min and stopped by adding 2 µl of 10% SDS and 1 µl of 250 mM of EDTA, followed by the addition of 50 µg/ml of proteinase K at 45C for 30 min. The reaction was then resolved by electrophoresis on a 1% agarose gel containing […] ethidium bromide in TAE buffer at 60 V. DNA bands were visualized using a gel imager (Gel Doc™ EZ System) and quantified by using the Image Studio™ Lite Quantification Software.

[5] = biological target: T1, TOP2A; assay: DNA cleavage assay; assay type: biochemical; set-up: full-length human TOP2A and TOP2B protein (TopoGEN and Inspiralis respectively); purchased TopoGEN TG1001 (human TOP2 assay kit); details: 200 µM, buffer without ATP
Protocol: as §3

[6] = test system: salmon sperm DNA; assay: Ethidium bromide displacement assay; assay type: binding; details: increasing doses; 100 µg/ml DNA, 2 µg/ml ethidium bromide
Protocol: Ethidium bromide displacement assay was performed as previously described ([49], [50]) using Amsacrine (mAMSA) as a positive control. In a 20 µl reaction, compounds were mixed with 100 µg/ml of salmon sperm DNA and 2 µg/ml of ethidium bromide in a fluorescence buffer containing 10 mM HEPES, pH 7.9, 100 mM KCl, 5 mM MgCl2, 0.1 mM EDTA, pH 8.0. Triplicate reactions were subjected to fluorescence emission of 590 nm and excitation of 535 nm. Signals were detected by using the Multimode Microplate Reader, Infinite® F500.

[7] = biological target: T1, TOP2A; assay: K-DNA decatenation assay; assay type: biochemical; set-up: full-length human TOP2A and TOP2B protein (TopoGEN and Inspiralis respectively); purchased TopoGEN TG1001 (human TOP2 assay kit); details: Figure 3A
Protocol: as §1

[8] = biological target: T1, TOP2A; assay: DNA relaxation assay (supercoiled pHOT-1 plasmid); assay type: biochemical; set-up: full-length human TOP2A and TOP2B protein (TopoGEN and Inspiralis respectively); purchased TopoGEN TG1001 (human TOP2 assay kit); details: Figure 3B
Protocol: as §2

[9] = biological target: TOP2A full-length (Homo sapiens, UniProt P11388 1-1531); assay: EMSA; 2 uM protein, 300 nM DNA, 3 mM Mg2+, no inhibitor; 20 mM HEPES-NaOH pH 7.4, 2 mM DTT, 3 mM MgCl2, 0.05% NP-40, protease inhibitors, 0.1 ug poly[dI:dC] in 20 ul, 30 min at 37 C; 4% native gel in 0.5x TBE; details: protein: commercial; label: IRDye700; blunt; self-complementary strand, 2 copies
[10] = biological target: TOP2B full-length (Homo sapiens, UniProt Q02880 1-1626); assay: as above; details: protein: commercial; label: IRDye700; blunt; self-complementary strand, 2 copies
[11] = biological target: TOP2A (431-1193) (Homo sapiens, UniProt P11388 431-1193); assay: EMSA; 30 uM protein, 300 nM DNA, 3 mM Mg2+, no inhibitor; 20 mM HEPES-NaOH pH 7.4, 2 mM DTT, 3 mM MgCl2, 0.05% NP-40, protease inhibitors, 0.1 ug poly[dI:dC] in 20 ul, 30 min at 37 C; 4% native gel in 0.5x TBE; details: protein: recombinant; (NiNTA purified); label: IRDye700; blunt; self-complementary strand, 2 copies
Sequence of TOP2A (431-1193) (P11388 431-1193): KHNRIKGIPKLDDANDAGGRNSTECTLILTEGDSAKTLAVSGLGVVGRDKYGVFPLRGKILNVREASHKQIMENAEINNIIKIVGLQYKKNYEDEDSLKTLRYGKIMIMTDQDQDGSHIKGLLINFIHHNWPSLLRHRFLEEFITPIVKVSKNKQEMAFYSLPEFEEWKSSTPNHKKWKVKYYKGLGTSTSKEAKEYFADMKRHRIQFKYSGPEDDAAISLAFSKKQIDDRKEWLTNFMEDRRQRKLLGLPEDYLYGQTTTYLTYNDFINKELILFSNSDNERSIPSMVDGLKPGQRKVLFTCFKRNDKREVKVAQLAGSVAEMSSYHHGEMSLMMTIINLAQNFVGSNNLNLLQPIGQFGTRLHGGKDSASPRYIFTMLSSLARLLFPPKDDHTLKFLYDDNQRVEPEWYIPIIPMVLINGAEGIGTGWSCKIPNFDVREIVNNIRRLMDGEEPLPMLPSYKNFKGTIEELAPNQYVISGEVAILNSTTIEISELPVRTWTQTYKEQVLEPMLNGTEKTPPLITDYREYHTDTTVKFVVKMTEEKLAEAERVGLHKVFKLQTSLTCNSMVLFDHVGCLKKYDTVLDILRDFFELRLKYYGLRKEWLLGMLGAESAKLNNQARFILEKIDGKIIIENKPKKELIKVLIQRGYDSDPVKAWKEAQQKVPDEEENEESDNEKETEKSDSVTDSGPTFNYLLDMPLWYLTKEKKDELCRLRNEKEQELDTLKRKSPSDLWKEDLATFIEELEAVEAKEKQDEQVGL

T2 sequence (P11388 431-1193): as above
T1 sequence (P11388 whole entry): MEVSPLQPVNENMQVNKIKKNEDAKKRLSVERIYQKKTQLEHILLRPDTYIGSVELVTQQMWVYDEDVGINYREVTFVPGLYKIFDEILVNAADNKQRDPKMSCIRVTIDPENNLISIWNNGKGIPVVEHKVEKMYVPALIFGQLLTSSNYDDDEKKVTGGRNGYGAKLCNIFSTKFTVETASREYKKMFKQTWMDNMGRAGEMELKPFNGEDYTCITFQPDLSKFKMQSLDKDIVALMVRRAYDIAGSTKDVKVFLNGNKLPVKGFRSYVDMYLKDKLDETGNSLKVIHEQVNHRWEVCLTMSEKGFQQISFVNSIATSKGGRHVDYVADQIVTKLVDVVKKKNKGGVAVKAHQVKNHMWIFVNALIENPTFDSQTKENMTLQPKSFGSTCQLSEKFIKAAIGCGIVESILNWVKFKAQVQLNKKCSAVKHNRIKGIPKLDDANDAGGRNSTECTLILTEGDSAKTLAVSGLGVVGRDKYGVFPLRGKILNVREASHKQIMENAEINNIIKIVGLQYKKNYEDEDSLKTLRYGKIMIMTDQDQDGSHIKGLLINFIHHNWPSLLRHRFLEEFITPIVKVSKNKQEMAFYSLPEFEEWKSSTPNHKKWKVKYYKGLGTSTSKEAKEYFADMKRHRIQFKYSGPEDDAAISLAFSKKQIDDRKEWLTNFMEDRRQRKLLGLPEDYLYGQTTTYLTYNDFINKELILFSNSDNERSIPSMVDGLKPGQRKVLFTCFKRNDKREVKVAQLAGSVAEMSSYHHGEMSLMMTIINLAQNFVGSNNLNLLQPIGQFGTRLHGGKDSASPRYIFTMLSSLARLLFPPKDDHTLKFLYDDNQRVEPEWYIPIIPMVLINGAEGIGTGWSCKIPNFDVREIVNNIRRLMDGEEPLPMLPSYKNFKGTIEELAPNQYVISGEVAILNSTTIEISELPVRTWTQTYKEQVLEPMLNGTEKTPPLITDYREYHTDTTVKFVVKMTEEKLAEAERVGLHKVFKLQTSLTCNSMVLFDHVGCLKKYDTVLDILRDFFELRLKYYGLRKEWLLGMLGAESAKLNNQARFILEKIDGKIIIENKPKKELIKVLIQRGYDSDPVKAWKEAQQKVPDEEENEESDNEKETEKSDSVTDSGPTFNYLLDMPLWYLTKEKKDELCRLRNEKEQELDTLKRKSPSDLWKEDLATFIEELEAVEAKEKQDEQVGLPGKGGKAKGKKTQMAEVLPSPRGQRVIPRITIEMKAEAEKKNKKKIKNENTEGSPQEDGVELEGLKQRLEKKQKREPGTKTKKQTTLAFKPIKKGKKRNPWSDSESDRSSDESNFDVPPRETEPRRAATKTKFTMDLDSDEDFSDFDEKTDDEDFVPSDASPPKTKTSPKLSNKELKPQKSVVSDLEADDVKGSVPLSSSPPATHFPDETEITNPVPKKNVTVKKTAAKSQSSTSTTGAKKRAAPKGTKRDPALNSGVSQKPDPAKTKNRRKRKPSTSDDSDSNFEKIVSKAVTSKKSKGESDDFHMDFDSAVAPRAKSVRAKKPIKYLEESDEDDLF
Sequence of TOP2A full-length (P11388 whole entry): as above
Sequence of TOP2B full-length (Q02880 whole entry): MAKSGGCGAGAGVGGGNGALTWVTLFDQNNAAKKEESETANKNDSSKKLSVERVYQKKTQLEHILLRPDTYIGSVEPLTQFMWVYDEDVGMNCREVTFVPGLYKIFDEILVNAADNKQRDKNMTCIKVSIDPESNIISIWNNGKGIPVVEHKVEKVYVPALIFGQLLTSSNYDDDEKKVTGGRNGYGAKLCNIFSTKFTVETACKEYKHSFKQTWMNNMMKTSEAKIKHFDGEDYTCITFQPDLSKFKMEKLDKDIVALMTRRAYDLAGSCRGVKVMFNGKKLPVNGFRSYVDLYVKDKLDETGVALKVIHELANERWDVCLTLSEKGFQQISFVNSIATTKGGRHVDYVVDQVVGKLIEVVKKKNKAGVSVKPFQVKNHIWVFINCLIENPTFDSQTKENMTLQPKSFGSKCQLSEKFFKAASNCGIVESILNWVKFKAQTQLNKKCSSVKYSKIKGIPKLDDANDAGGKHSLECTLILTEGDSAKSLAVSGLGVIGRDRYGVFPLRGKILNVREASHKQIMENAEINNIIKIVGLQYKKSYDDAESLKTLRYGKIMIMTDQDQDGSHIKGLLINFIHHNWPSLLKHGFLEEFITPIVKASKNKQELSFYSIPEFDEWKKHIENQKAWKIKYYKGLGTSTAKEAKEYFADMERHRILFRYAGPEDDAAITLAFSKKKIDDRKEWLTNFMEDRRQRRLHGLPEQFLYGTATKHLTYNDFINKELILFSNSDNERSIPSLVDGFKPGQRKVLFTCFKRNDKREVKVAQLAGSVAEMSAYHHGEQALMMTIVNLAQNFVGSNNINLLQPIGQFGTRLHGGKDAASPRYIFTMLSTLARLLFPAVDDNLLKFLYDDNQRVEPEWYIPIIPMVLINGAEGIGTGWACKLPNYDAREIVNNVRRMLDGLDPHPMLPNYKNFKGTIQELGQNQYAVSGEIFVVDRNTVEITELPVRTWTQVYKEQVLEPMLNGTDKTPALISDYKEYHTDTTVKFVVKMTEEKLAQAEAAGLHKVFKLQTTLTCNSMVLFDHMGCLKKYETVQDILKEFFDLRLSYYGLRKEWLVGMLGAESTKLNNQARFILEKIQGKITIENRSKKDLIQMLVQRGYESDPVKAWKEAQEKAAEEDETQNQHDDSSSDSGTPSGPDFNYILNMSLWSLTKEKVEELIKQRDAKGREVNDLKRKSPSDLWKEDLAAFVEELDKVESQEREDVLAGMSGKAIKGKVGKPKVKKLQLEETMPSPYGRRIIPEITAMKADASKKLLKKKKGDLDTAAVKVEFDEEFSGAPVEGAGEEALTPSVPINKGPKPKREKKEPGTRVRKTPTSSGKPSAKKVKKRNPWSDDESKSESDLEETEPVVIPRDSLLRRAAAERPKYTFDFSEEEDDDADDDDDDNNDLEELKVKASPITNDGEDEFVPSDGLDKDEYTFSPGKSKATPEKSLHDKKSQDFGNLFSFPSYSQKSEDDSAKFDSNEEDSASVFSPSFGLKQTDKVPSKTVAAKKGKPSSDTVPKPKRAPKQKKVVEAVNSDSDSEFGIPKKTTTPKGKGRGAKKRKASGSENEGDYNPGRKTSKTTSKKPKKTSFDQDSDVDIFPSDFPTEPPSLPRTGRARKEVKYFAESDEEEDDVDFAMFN
Sequence of TOP2B (Q02880 whole entry): as above

Molecule: Cc1cc(Nc2ccccc2)ccc1NC(=O)c1ccc[nH]c1=S [T633]
Hill slope, BLI ([2]; dose-response 0-50 μM): 5±1.5 | Kd ([2]; dose-response 0-50 μM, estimated): 35 ± 3 µM | Binding to TOP2A (431–1193), BLI curves ([2]; increasing concentrations): reversible and dose-response binding | Tumor growth at the end of two weeks [3]: strongly inhibit tumor growth comparable to etoposide | Activity on TOP2 [1]: stronger activities than T60

Molecule: COc1cc([C@@H]2c3cc4c(cc3[C@@H](O[C@@H]3O[C@@H]5CO[C@@H](C)O[C@H]5[C@H](O)[C@H]3O)[C@H]3COC(=O)[C@H]23)OCO4)cc(OC)c1O [etoposide]
Tumor volumes versus vehicle group at the end of four weeks [3]: statistically lower than the vehicle group | Induction of linear plasmid (DNA cleavage) with TOP2B [4]: induced detectable linear plasmid | Induction of linear plasmid (DNA cleavage) with TOP2A [5]: induced detectable linear plasmid

Molecule: COc1cc(NS(C)(=O)=O)ccc1Nc1c2ccccc2nc2ccccc12 [m-AMSA, Amsacrine, reference compound]
Fluorescence of ethidium bromide/DNA complex (DNA intercalation) [6]: reduced

Molecule: ICRF193 [reference compound]
Inhibition of TOP2A mediated K-DNA decatenation [7]: inhibited | Inhibition of TOP2A activity changing supercoiled into relaxed plasmid DNA [8]: inhibited

B1: 5ZRF (dsDNA)
DNA 1: AGCCGAGCTGCAGCTCGGCT
DNA 2: AGCCGAGCTGCAGCTCGGCT
binding result [9]: binds | binding result [10]: binds | binding result [11]: binds

Continued, values first:

Activity on TOP2 [1]: most active compound
Molecule: O=C(Nc1ccc(Nc2ccccc2)cc1)c1ccccc1S [T609]

Activity on TOP2 [1]: increased activity
Molecule: O=C(Nc1ccc(Nc2ccccc2O)cc1)c1ccc[nH]c1=S [T620]

Activity on TOP2 [1]: increased activity
Molecule: O=C(Nc1ccc(Nc2ccc(O)cc2)cc1)c1ccc[nH]c1=S [T625]

Activity on TOP2 [1]: complete abolishment of T60 activity
Molecule: CN(C(=O)c1ccc[nH]c1=S)c1ccc(Nc2ccccc2)cc1 [T627]

Activity on TOP2 [1]: stronger activities than T60
Molecule: Cc1cc(NC(=O)c2ccc[nH]c2=S)ccc1Nc1ccccc1 [T630]

Activity on TOP2 [1]: stronger activities than T60
Molecule: O=C(Nc1ccc(Nc2ccccc2)cc1O)c1ccc[nH]c1=S [T634]

Activity on TOP2 [1]: nearly inactive
Molecule: O=C(Nc1ccc(Nc2ccccc2)cc1)c1ccnnc1S [T635]

Activity on TOP2 [1]: nearly inactive
Molecule: O=C(Nc1ccc(Nc2ccccc2)cc1)c1c[nH]cnc1=S [T636]
